Among the test systems are Escherichia coli HB101; Aspergillus fumigatus; Candida albicans; Sporothrix schenckii; Cryptococcus neoformans; Staphylococcus aureus MR.
Holding throughout (assay): ≥ marks a high value that may be exact or a test limit, other limits are often not marked, values filed in µg/mL are converted to µM
Assay [1] deals with Leishmania major MHOM/IL/67/JERICHO-II.
Assay [2] relates to Staphylococcus aureus Cowan 1.
Assay [3] concerns Klebsiella pneumoniae ATCC 27736.
Assay [4] relates to Bacillus subtilis ATCC 6633.
In assay [5] the test system is Staphylococcus aureus ATCC 9144.
For assay [6], the system named is Staphylococcus epidermidis NRRL B-4268.
The subject of assay [7] is Candida parapsilosis ATCC 22019.
In assay [8] the test system is Pseudomonas aeruginosa ATCC BAA-427.
Assay [9] deals with Escherichia coli ATCC 10536.
The test system of assay [10] is Trichophyton mentagrophytes.
In assay [11] the test system is Staphylococcus aureus CCARM 3089.
Assay [12] has as its system Escherichia coli CCARM 1238.
The test system of assay [13] is Pseudomonas aeruginosa KCTC 1637.
For assay [14], the system named is Pseudomonas aeruginosa CCARM 2002.
Assay [15] has as its system Salmonella typhimurium KCTC 1926.
Assay [16] deals with Acinetobacter baumannii CCARM 12036.
Assay [17] has as its system Acinetobacter baumannii CCARM 12035.
Assay [18] has as its system Pseudomonas aeruginosa CCARM 2095.
The subject of assay [19] is Staphylococcus aureus CCARM 3108.
The subject of assay [20] is Escherichia coli KCTC 1682.
The test system of assay [21] is Escherichia coli CCARM 1229.
Assay [22] deals with Salmonella typhimurium CCARM 8007.
In assay [23] the test system is Acinetobacter baumannii KCTC 2508.
For assay [24], the system named is Staphylococcus epidermidis KCTC 1917.
Assay [25] deals with Salmonella typhimurium CCARM 8003.
In assay [26] the test system is Staphylococcus aureus CCARM 3126.
In assay [27] the test system is Staphylococcus aureus KCTC 1621.
For assay [28], the system named is Bacillus subtilis KCTC 3028.
Assay [29] deals with Streptococcus sanguinis ATCC 10556.
The test system of assay [30] is Streptococcus sobrinus ATCC 6715.
Assay [31] deals with Streptococcus mutans UA159.
The subject of assay [32] is Escherichia coli ATCC 25922.
The test system of assay [33] is Staphylococcus aureus NCTC 6571.
The test system of assay [34] is Candida albicans NCTC 3179.

The term MIC denotes the lowest concentration that inhibits growth of the organism. The low end stands for greater potency, the high end for weaker potency.

SMILES strings stand for the structures. Converted amounts (≈) assume the structure as drawn.

With `CSCC[C@H](NC(=O)[C@@H](NC(=O)CNC(=O)[C@H](CC(C)C)NC(=O)[C@H](CCCCN)NC(=O)[C@H](CCCCN)NC(=O)[C@H](CC(C)C)NC(=O)[C@H](CCSC)NC(=O)[C@@H](NC(=O)[C@H](CCCCN)NC(=O)[C@H](Cc1c[nH]c2ccccc12)NC(=O)[C@H](CC(C)C)NC(=O)[C@H](C)N)[C@@H](C)O)[C@@H](C)O)C(=O)N[C@@H](C)C(N)=O` [ALWKTMLKKLGTMA], the MIC (in assay [1]; in the assay with Escherichia coli HB101; in assay [2]) was at least 48.8 µM throughout.
With `CC(C)C[C@H](NC(=O)[C@H](C)NC(=O)[C@H](CCCN=C(N)N)NC(=O)[C@H](CCCN=C(N)N)NC(=O)[C@H](C)NC(=O)[C@H](Cc1c[nH]c2ccccc12)NC(=O)[C@H](CCCCN)NC(=O)[C@H](CCCN=C(N)N)NC(=O)[C@H](C)NC(=O)[C@H](CCCN=C(N)N)NC(=O)[C@H](CCCN=C(N)N)NC(=O)[C@H](C)N)C(=O)N[C@@H](CCCCN)C(=O)N[C@@H](CC(C)C)C(=O)N[C@@H](C)C(N)=O` [ARRARKWARRALKLA], the MIC in [3] is 25 µM (≈ 45.6 µg/mL); in the assay on Aspergillus fumigatus, 25 µM (≈ 45.6 µg/mL); in [4] it was 20 µM (≈ 36.4 µg/mL); against Candida albicans, over 25 µM; in the assay on Sporothrix schenckii, 25 µM (≈ 45.6 µg/mL); in assay [5], 6.25 µM (≈ 11.4 µg/mL). For the same compound, the MIC in assay [6] was 8 µM (≈ 14.6 µg/mL); in [7], 25 µM (≈ 45.6 µg/mL); in assay [8] it was 6.25 µM (≈ 11.4 µg/mL); against Cryptococcus neoformans it was 25 µM (≈ 45.6 µg/mL); in assay [9] it was 4.5 µM (≈ 8.2 µg/mL); in [10], 25 µM (≈ 45.6 µg/mL). Moreover, the MIC in the assay with Staphylococcus aureus MR amounted to 25 µM (≈ 45.6 µg/mL).
As for `CC[C@H](C)[C@H](NC(=O)[C@H](C)NC(=O)[C@H](CCC(=O)O)NC(=O)[C@H](Cc1cnc[nH]1)NC(=O)[C@@H](NC(=O)[C@@H]1CCCN1C(=O)[C@H](CCC(N)=O)NC(=O)[C@H](Cc1ccccc1)NC(=O)[C@@H](NC(=O)[C@H](CCCCN)NC(=O)[C@H](CCCCN)NC(=O)[C@H](CC(C)C)NC(=O)[C@H](C)NC(=O)[C@H](CC(N)=O)NC(=O)[C@H](CC(C)C)NC(=O)CN)C(C)C)[C@@H](C)CC)C(=O)N[C@@H](CCCCN)C(=O)N[C@@H](CC(C)C)C(=O)N[C@H](C(=O)N[C@@H](CC(N)=O)C(=O)N[C@@H](CC(N)=O)C(=O)N[C@@H](Cc1cnc[nH]1)C(=O)N[C@H](C(=O)N[C@@H](CCC(N)=O)C(=O)O)C(C)C)[C@@H](C)CC` [GLNALKKVFQPIHEAIKLINNHVQ], the MIC in [11] was at least 32 µM; in assay [12], 8 µM (≈ 21.8 µg/mL); in [13], 16 µM (≈ 43.6 µg/mL); in assay [14], 16 µM (≈ 43.6 µg/mL); in assay [15], 8 µM (≈ 21.8 µg/mL); in assay [16], 8 µM (≈ 21.8 µg/mL). In addition, the MIC was 8 µM (≈ 21.8 µg/mL) in assay [17]; 16 µM (≈ 43.6 µg/mL) in [18]; at least 32 µM in assay [19]; 8 µM (≈ 21.8 µg/mL) in assay [20]; 8 µM (≈ 21.8 µg/mL) in assay [21]; 8 µM (≈ 21.8 µg/mL) in [22]. In addition, the MIC in [23] was 8 µM (≈ 21.8 µg/mL); in [24] it was at least 32 µM; in [25] it was 16 µM (≈ 43.6 µg/mL); in [26] it was at least 32 µM; in assay [27], at least 32 µM; in [28] it was at least 32 µM.
On to `CC(C)[C@H](NC(=O)[C@H](CCCCN)NC(=O)[C@H](Cc1ccccc1)NC(=O)[C@H](Cc1ccccc1)NC(=O)[C@H](CCCCN)NC(=O)[C@H](CCCCN)NC(=O)[C@H](Cc1ccccc1)NC(=O)[C@H](Cc1ccccc1)NC(=O)[C@H](CCCCN)NC(=O)CNC(=O)[C@H](Cc1c[nH]c2ccccc12)NC(=O)CN)C(=O)NCC(=O)N[C@@H](CCCCN)C(=O)O` [GWGKFFKKFFKVGK], for which the MIC in assay [29], in [30] and in assay [31] was 18.8 µM (≈ 32 µg/mL) each time.
Turning to `CC[C@H](C)[C@H](NC(=O)[C@H](CCCN=C(N)N)NC(=O)[C@H](CCC(N)=O)NC(=O)[C@@H](NC(=O)[C@@H](NC(=O)[C@H](CCCN=C(N)N)NC(=O)[C@H](CCCCN)NC(=O)[C@H](Cc1ccccc1)NC(=O)[C@H](CCC(=O)O)NC(=O)[C@@H](N)CCCCN)[C@@H](C)CC)C(C)C)C(=O)N[C@@H](CCCCN)C(=O)N[C@@H](CC(=O)O)C(=O)N[C@@H](Cc1ccccc1)C(=O)N[C@@H](CC(C)C)C(=O)N[C@@H](CCCN=C(N)N)C(=O)N[C@@H](CC(N)=O)C(=O)N[C@@H](CC(C)C)C(=O)N[C@H](C(=O)O)C(C)C` [KEFKRIVQRIKDFLRNLV], the values for the MIC in assay [32], in assay [33] and in assay [34] were 0.912 µM (≈ 2.1 µg/mL), 3.13 µM (≈ 7.2 µg/mL) and at least 36.5 µM, respectively.
